In PMC8270334, “Design, Sustainable Synthesis and Biological Evaluation of a Novel Dual α2A/5-HT7 Receptor Antagonist with Antidepressant-Like Properties” (Molecules, 2021):

Experiments:
human 5-HT2A receptor = molecular target: T1, human 5-HT2A receptor (Homo sapiens, UniProt P28223); test: radioligand binding, [3H]-ketanserin displacement at 5-HT2AR in CHO-K1 cells; settings: ± SEM; footnote HEK-293 cells, method CHO-K1 cells
T1 construct: host or cells: CHO-K1
Method: (§1) All experiments were performed using HEK293 cells stably expressing human 5-HT1A, 5-HT6, 5-HT7b, and D2L receptors or CHO-K1 cells with a plasmid containing the human 5-HT2A receptor coding sequence (PerkinElmer, Waltham, MA, USA), according to previously reported procedures. Cells were cultured in 150 cm^2 flasks and, after reaching a 90% confluence, were washed with PBS and the centrifugated (200 g) in PBS containing 0.1 mM EDTA and 1 mM dithiothreitol. Cell pellets were subsequently homogenized (in Ultra Turrax tissue homogenizer) and centrifugated twice (35,000× g for 15 min at 4 °C), with 15 min incubation at 37 °C between the centrifugations. All assays were incubated in dedicated buffers and in a total volume of 200 µL in 96-well microtitre plates for 1 h at 37 °C, except for 5-HT1AR and 5-HT2AR that was incubated for 1 h at room temperature. The process of equilibration is terminated by rapid filtration through Unifilter-96 (PerkinElmer) plates with a 96-well cell harvester and radioactivity retained on the filters was quantified on a Microbeta plate reader (PerkinElmer, USA). For displacement studies, the following assay samples containing the proper radioligand were used: 2.5 nM [^3H]-8-OH-DPAT (PerkinElmer, #NET929001MC) for 5-HT1AR; 1 nM [^3H]-ketanserin (PerkinElmer, #NET791250UC) for 5-HT2AR; 2 nM [^3H]-LSD (PerkinElmer, #NET638250UC) for 5-HT6R; and 0.8 nM [^3H]-5-CT (PerkinElmer, #NET1188U100UC) for 5-HT7R or 2.5 nM [^3H]-raclopride (PerkinElmer, #NET975001MC) for D2LR. Non-specific binding was determined using 10 μM 5-HT for 5-HT1AR and 5-HT7R, 20 μM mianserin for 5-HT2AR, 10 μM methiothepine for 5-HT6R, and 10 μM haloperidol for D2LR. […] Results were expressed as means of at least three separate experiments.

human 5-HT6 receptor = molecular target: T2, human 5-HT6 receptor (Homo sapiens, UniProt P50406); test: radioligand binding, [3H]-LSD displacement at 5-HT6R in HEK293 cells; settings: HEK-293 cells, ± SEM
T2 construct: expressed in transfected cells; host or cells: HEK293
Method: as §1

α2B-adrenergic receptor = molecular target: T3, α2B-adrenergic receptor (Homo sapiens, UniProt P18089); test: intrinsic activity (antagonist) assay, α2B AequoScreen cell line, aequorin calcium mobilization; format: cell-based; settings: AequoScreen cells, ± SEM, two independent experiments
T3 sequence (P18089 1-450): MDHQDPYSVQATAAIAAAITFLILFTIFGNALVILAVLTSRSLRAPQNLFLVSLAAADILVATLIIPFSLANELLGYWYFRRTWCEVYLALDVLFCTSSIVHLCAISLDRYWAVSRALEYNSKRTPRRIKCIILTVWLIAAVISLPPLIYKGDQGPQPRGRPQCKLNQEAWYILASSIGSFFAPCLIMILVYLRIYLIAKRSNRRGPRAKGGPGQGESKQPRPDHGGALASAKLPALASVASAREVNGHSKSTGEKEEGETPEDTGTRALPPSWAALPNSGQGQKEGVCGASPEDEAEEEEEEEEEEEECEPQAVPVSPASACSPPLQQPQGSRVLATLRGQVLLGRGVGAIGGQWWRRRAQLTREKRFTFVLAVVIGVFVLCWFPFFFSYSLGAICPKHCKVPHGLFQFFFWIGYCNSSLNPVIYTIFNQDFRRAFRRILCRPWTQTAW
Method: The intrinsic activity assays for the α2B-adrenergic receptor were assessed by luminescence detection of calcium mobilization using the recombinant expressed jellyfish photoprotein, aequorin. Measurements were performed with adrenergic α2B AequoScreen cell line (PekinElmer). The cell density in 96-well format measurements was 5000 cells per well. Cell harvesting, coelenterazine h (Invitrogen, cat. no. C 6780) loading and preparation were done according to instructions presented in the AequoScreen Starter Kit Manual (PerkinElmer). Compound concentration series (50 μL/well) were diluted in 0.1% BSA (Intergen) containing assay buffer (D-MEM/F-12, Invitrogen cat. no. 11039) and prepared in white ½ Area Plate–96 well microplates (PerkinElmer,). The cell suspension was dispensed on the ligands using the POLARstar optima reader injectors. For the antagonist assay, cells were injected (50 μL) into the assay plate with antagonists (50 μL) using the POLARstar optima reader. The antagonist dilution series with four replicates were prepared as instructed in the AequoScreen Starter Kit Manual at the concentrations from 10^–11 to 10^–6 M/L. The agonist used for […] was Oxymetazoline (Sigma, cat. no. O2378), which at a single concentration was injected (50 μL, final concentration EC80) on the preincubated (15–20 min) mixture of cells and antagonist, and the emitted light was recorded for 20 s.

Albino Swiss mice = test: forced swim test; format: in vivo; settings: ip; for shortening of immobility in FST in comparison to control: dose range 1–8 mg/kg; for shortening of immobility in FST in comparison to control / active dose in FST (antidepressant-like effect): 30 min before test
Method: Adult male Albino Swiss mice (CD-1, 8 weeks old, 25–30 g: Jagiellonian University Medical College, Krakow, Poland) were used in the study. Animals were housed in groups of 8 in a transparent plastic cage (382 × 220 × 150 mm) at room temperature (22 ± 2 °C), on a 12 h light/dark cycle with ad libitum access to food and water. Mice were handled for one week before starting the experimental procedures. The separate groups of animals were used in the forced swim test and in the locomotor studies. All studies were approved by the Institutional Animal Care and Ethics Committee of the Jagiellonian University (approval no.: 80/2015). […] Tested compounds were dissolved with 1% Tween 80. […] The control animals were given ip injections of the 2% DMSO in 1% Tween 80 (vehicle). The volume of vehicle or drug solutions was 10 mL/kg. The experiment was performed on mice according to the method previously described. Mice were forced to swim individually in the glass cylinders (height 25 cm, diameter 10 cm) filled with water at 24 ± 1 °C to a depth of 10 cm and left there for 6 min. Following a 2 min habituation period, total time spent immobile was recorded over the next 4 min. The animal was regarded as immobile when it remained floating passively in the water, making only small movements to keep its head above the water.

T1 sequence (P28223 whole entry): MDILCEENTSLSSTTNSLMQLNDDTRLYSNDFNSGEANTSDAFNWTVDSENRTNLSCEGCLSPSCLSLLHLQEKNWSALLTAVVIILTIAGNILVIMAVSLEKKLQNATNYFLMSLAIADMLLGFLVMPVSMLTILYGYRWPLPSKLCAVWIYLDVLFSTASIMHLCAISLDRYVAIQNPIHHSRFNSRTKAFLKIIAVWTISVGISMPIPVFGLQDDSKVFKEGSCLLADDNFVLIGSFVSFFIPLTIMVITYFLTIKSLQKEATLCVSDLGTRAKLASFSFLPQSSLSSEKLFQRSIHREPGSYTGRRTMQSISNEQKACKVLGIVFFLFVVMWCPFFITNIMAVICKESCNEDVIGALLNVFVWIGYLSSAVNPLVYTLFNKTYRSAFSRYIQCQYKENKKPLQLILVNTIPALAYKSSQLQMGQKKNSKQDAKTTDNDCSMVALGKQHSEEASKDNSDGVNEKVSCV
T2 sequence (P50406 whole entry): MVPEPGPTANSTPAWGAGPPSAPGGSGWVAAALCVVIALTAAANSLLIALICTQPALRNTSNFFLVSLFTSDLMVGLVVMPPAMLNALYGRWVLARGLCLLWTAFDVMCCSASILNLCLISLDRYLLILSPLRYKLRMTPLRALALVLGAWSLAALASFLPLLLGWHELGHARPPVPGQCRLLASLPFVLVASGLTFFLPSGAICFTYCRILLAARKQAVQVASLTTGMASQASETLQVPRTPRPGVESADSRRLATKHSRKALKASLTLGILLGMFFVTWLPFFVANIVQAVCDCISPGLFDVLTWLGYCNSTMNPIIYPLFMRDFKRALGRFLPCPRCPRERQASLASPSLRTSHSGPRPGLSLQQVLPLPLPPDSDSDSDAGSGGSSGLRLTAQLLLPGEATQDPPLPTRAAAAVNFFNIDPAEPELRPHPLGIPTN

Row | SMILES | Ki (human 5-HT2A receptor) [nM] | Ki (human 5-HT6 receptor) [nM] | Kb (α2B-adrenergic receptor) [nM] | shortening of immobility in FST in comparison to control (Albino Swiss mice) | active dose in FST (antidepressant-like effect) (Albino Swiss mice) [mg/kg] | effect in the FST (Albino Swiss mice; doses of 4 and 8 mg/kg)
1 | CC1(C)Cc2cccc(OCCN3CCC(NS(=O)(=O)c4ccc(F)cc4)CC3)c2O1 [Compound 6, 4-Fluoro-N-{1-[2-(2,2-dimethyl-2,3-dihydrobenzofuran-7-yloxy)ethyl]piperidin-4-yl} benzenesulfonamide] | 538 ± 38 | 839 ± 70 | 103 ± 25 | about 25% | 8 | 
2 | CC1(C)Cc2cccc(OCCN3CCC(NS(=O)(=O)c4cc(Cl)ccc4F)CC3)c2O1 [Compound 8, 5-Chloro-2-fluoro-N-{1-[2-(2,2-dimethyl-2,3-dihydrobenzofuran-7-yloxy)ethyl]piperidin-4-yl}benzenesulfonamide] | 1420 ± 98 | 873 ± 91 | 142 ± 31 | about 25% | 4 | 
3 | CC1(C)Cc2cccc(OCCN3CCC(NS(=O)(=O)c4cncc5ccccc45)CC3)c2O1 [Compound 13, 4-Isoquinoline-N-{1-[2-(2,2-dimethyl-2,3-dihydrobenzofuran-7-yloxy)ethyl]piperidin-4-yl}sulfonamide] | 1420 ± 105 | 1120 ± 114 | 27 ± 13 | about 25% | 1 | lack of pharmacological effect
